Literature values in article PMC2981028 (Cancer research, 2010).

Key:
insulin receptor (IR) = insulin receptor (IR) (Homo sapiens, UniProt P06213); experiment: inhibition of IR phosphorylation in vitro; format: cell-based
[1] = target: type 1 insulin-like growth factor receptor (IGF-1R) (Homo sapiens, UniProt P08069); experiment: inhibition of IGF-1R phosphorylation in vitro; format: cell-based
type 1 insulin-like growth factor receptor (IGF-1R), sequence (P08069 31-736): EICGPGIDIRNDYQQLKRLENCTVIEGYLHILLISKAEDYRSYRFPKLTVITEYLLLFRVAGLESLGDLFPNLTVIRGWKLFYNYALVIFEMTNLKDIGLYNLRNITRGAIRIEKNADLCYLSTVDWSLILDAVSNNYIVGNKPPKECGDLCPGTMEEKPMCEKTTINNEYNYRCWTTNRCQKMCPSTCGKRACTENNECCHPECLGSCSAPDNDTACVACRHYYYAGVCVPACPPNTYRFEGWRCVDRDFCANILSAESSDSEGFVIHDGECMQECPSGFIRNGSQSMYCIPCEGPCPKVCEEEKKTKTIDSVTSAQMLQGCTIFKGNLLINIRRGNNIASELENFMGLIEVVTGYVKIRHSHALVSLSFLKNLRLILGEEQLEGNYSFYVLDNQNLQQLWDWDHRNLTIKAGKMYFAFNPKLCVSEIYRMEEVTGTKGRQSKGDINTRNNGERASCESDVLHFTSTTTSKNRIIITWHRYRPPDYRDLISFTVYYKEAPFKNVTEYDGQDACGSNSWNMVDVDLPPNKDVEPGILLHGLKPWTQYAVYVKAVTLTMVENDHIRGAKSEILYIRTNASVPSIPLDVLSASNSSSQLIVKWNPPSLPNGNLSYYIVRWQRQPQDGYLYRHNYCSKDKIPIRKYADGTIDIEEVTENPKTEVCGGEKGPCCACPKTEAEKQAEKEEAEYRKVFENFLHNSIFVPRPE
type 1 insulin-like growth factor receptor (IGF-1R), sequence (P08069 741-1367): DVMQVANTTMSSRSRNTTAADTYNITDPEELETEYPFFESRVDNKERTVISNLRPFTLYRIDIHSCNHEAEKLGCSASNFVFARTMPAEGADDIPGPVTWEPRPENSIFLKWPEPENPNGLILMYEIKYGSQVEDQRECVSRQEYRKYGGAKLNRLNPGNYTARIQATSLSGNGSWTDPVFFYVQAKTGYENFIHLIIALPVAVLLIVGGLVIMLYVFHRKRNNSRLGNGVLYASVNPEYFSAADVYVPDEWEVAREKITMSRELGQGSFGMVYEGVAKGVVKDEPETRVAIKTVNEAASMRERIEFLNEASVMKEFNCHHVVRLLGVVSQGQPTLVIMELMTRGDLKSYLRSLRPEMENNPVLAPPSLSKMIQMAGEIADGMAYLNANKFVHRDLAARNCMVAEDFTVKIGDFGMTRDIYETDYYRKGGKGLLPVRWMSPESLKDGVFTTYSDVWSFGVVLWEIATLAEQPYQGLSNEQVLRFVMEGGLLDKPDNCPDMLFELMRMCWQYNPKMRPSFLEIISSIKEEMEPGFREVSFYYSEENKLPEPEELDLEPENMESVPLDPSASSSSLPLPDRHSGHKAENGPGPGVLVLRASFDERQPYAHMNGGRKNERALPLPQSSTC

insulin receptor (IR), sequence (P06213 28-758): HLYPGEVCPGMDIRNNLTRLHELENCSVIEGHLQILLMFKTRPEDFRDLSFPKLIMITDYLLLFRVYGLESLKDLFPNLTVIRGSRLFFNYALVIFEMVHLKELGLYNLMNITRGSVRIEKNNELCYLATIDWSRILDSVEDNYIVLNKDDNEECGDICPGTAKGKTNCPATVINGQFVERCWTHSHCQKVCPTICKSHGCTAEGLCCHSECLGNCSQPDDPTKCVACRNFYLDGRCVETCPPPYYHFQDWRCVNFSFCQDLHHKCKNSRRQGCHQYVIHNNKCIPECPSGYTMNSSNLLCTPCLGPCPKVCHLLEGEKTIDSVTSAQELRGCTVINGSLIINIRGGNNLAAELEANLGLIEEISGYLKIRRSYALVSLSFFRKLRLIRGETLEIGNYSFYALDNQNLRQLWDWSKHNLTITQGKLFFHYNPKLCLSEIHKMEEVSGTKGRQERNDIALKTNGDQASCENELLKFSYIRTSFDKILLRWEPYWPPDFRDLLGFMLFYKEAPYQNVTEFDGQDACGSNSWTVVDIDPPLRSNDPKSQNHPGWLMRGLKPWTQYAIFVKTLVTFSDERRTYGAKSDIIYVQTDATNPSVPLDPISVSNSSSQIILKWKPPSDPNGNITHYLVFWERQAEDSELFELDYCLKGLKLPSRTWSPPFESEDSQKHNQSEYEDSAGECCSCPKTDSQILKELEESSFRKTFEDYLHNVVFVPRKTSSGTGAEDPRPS
insulin receptor (IR), sequence (P06213 763-1382): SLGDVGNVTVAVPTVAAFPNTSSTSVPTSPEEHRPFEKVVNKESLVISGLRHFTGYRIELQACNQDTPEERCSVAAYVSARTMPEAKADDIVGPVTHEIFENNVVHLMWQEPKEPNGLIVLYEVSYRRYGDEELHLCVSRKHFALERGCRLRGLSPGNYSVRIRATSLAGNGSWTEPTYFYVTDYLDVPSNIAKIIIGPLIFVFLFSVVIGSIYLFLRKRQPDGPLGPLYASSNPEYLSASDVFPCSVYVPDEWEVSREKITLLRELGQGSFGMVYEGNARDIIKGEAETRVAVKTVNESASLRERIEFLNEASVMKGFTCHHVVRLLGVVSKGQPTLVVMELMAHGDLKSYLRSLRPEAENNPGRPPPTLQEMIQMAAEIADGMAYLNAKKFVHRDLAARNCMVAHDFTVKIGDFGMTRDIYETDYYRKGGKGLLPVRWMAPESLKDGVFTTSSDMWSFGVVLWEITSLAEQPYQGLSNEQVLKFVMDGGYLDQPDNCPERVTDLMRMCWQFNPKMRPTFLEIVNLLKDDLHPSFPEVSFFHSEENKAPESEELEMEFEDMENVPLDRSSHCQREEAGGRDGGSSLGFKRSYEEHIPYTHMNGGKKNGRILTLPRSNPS

## Cc1cc(Nc2cc(C)[nH]n2)nc(N2CCC[C@H]2c2cc(-c3ccccn3)no2)n1 [AZ12253801]
Insulin receptor (IR)
  IC50: 19 nM
[1]
  IC50: 2.1 nM
